Results from patent US20170281700A1, “PHAGE THERAPY FOR TARGETING ENTEROCOCCI” (priority 2014, published 2017).

Tested on: E. faecalis V583 VRE
Type: cell-based, Enterococcus faecalis
Source text: The insert depicts the clot model.
E. faecalis V583 (VRE) is an example of a vancomycin resistant E. faecalis that was announced by the Centers for Disease Control (CDC) as one of the major bacterial threats today.

Question: With `CN[C@H](CC(C)C)C(=O)N[C@H]1C(=O)N[C@@H](CC(N)=O)C(=O)N[C@H]2C(=O)N[C@H]3C(=O)N[C@H](C(=O)N[C@H](C(=O)O)c4cc(O)cc(O)c4-c4cc3ccc4O)[C@H](O)c3ccc(c(Cl)c3)Oc3cc2cc(c3O[C@@H]2O[C@H](CO)[C@@H](O)[C@H](O)[C@H]2O[C@H]2C[C@](C)(N)[C@H](O)[C@H](C)O2)Oc2ccc(cc2Cl)[C@H]1O` [vancomycin] as the compound, how does the “colony growth on agar plate from seeded culture aliquots” value (24 hours incubation in 37 °C) read?
Answer: Its value is “growth was observed”.

Question: And the “effect on growth and viability” value (EFLK1 2.5×10^7 phages/ml, vancomycin 15 μg/ml)?
Answer: The value was “somewhat affects its growth and viability”.
